Laboratory results reported in patent EP1304119A2, “Method for preventing and treating hearing loss using a neurturin protein product” (Amgen Inc., priority 1997, dated 1999).

Tests used:
[1] = test system: cochlear hair cells; test: In vivo hair cell loss after cisplatin, neurturin infused into the inner ear by mini-pump; design: species or system guinea pigs; conditions: cisplatin 7.5 mg/kg twice
Experimental: The following example describes the inner ear administration of neurturin protein product to protect cochlear hair cells against ototoxicity in an animal model. The neurturin protein product is introduced into the inner ear via a cannula pushed into the scala tympani through a hole drilled in the basal turn of the cochlea. The cannula is connected to an Alzet mini-pump loaded with neurturin protein product (50 ng/ml) at a releasing rate of 0.5 µl/hour for 14 days. […] The experiment is terminated after 27 days. The hair cells are stained with FITC-phalloidin, and their number is determined in the middle turn of the cochlea (in at least 20% of the middle turn part). The results are expressed as the percent of hair cells lost for each individual guinea pig for the neurturin protein product treated ear (right ear) and the untreated ear (left ear).
The loading of a pump with methylene dye is done by holding the pump in a vertical position. A dye-loaded syringe is inserted completely into the pump, and the dye is injected until the pump overflowed. Injection of any air bubbles into the pump is avoided. A short piece of sterile V/4 tubing is placed onto the Flow Moderator. Neurturin protein product is loaded at a concentration of 50 ng/ml in PBS + 0.1% BSA, in a total volume of 230 µl, to within about 10 mm of the cannula tip, using a syringe connected with V/4 tubing. […]

[2] = test system: cochlear hair cells; test: Organ of Corti (cochlea) explant culture, hair cell survival after cisplatin exposure (FITC-phalloidin count); assay type: cell-based, rat; conditions: cisplatin treatment alone
Text: Triton X-100 (t-Octylphenoxypoly-ethoxyethanol. Cat. #X-100, Sigma. St. Louis, MO) • 4. Phalloidin (FITC Labeled. Cat. #P-5282, Sigma. St. Louis, MO) • 5. Vectashield (Mounting Medium, Cat. #H-1000, Vector, Burlingame, CA)
Organ of Corti explants were obtained from P3-P4 Wistar rats. Rats were decapitated, the lower jaw was cut out and skin removed. The temporal bone was collected in dissection solution, the otic capsule exposed and the bony-cartilaginous cochlear capsule was carefully separated from the temporal bone. Freed cochlea were transferred to another Petri dish with dissection solution for further dissection. […] The organ of Corti was then transferred to a 35-mm diameter Petri dish containing cold PBS supplemented with glucose and ready to be cultured. […]
For each experimental point, 2 to 4 cochlea were used. In each cochlea, the number of hair cells was counted in 2-3 section, 175 mm in length each. Only the sections in the middle turn of the cochlea were analyzed. […]

[3] = test system: cochlear hair cells; test: Organ of Corti (cochlea) explant culture, hair cell survival after neomycin exposure (FITC-phalloidin count); assay type: cell-based, rat; conditions: for Hair cell survival (% of untreated): Neomycin alone (0.6 mM), added 24 hours after plating, 3 days exposure, mean ± SD, 4320 min, 600 µM
Text: • 1. Neomycin solution (Cat. #N1142, Sigma. St. […] Cat. #X-100, Sigma. St. Louis, MO) • 4. Phalloidin (FITC Labeled. Cat. #P-5282, Sigma. St. Louis, MO) • 5. Vectashield (Mounting Medium, Cat. #H-1000, Vector, Burlingame, CA)
Organ of Corti explants were obtained from P3-P4 Wistar rats. Rats were decapitated, the lower jaw was cut out and skin removed. The temporal bone was collected in dissection solution, the otic capsule exposed and the bony-cartilaginous cochlear capsule was carefully separated from the temporal bone. Freed cochlea were transferred to another Petri dish with dissection solution for further dissection. Intact organs of Corti were obtained by using a fine forceps to hold central VIII nerve tissue and remove it out, then the stria vascular membrane was carefully stripped off, starting from the apex or base. The organ of Corti was then transferred to a 35-mm diameter Petri dish containing cold PBS supplemented with glucose and ready to be cultured.
Cochlea explants were cultured in uncoated 96 well microplates. A single organ of Corti was placed in a well and was kept floating in the medium.
Explants were kept in normal medium for 24 hours (90 µl/well). Neurturin protein solution (10 µl) was added to the 'treated' cultures, and 10 µl of medium were added to controls. After 24 hours of incubation, the media were changed and the explants were exposed to ototoxin-containing medium (90 µl), with neurturin protein solution (10µl) or without (control). The cultures were incubated for an additional 3 days. […]
To identify and count hair cells in the organ of Corti, a direct immunostaining method was used to label the actin present naturally in the stereocilia bundles of the hair cells. […] The explants were . observed under a Nikon Diaphot-300 inverted fluorescence microscope, using FITC filters and fluorescence optics.
For each experimental point, 2 to 4 cochlea were used. In each cochlea, the number of hair cells was counted in 2-3 section, […] in length each. Only the sections in the middle turn of the cochlea were analyzed. […]

Compound	loss of hair cells in the left ear (untreated ear) [1]	morphology of the organs of Corti (four-row structure) [2]	Hair cell survival (% of untreated) [3]	Hair cell survival (% of untreated) ([3]; listed as neomycin)	morphology of the organs of Corti (four-row structure) ([3]; neomycin treatment alone, spared hair cells)
N.N.[Cl][Pt][Cl] [Cisplatin]	approximately 40%	caused a marked disruption of the four-row-structure			
Neomycin			5.9 ± 4.7 n=23%	6%	still organized in the typical four row structure
